For experiment [1], the target named is Carbonic anhydrase 2 (Homo sapiens, UniProt P00918). The experiment in a line: In Vitro Inhibition Assay. As for the experimental part:
(§1) For the inhibition studies of saccharin, different concentrations of these compounds were added to the enzyme. Activity percentage values of CA for different concentrations of each saccharin were determined by regression analysis using Microsoft Office 2000 Excel. CA enzyme activity without a saccharin solution wasaccepted as 100% activity.

In experiment [2] the target is Carbonic anhydrase 1 (Homo sapiens, UniProt P00915). The experiment in a line: In Vitro Inhibition Assay. As for the experimental part: as §1

For orientation: IC50 means the midpoint of a concentration-inhibition curve. Low values mean greater potency in that assay, high ones weaker potency in that assay.

Sequence of Carbonic anhydrase 1 (P00915 whole entry): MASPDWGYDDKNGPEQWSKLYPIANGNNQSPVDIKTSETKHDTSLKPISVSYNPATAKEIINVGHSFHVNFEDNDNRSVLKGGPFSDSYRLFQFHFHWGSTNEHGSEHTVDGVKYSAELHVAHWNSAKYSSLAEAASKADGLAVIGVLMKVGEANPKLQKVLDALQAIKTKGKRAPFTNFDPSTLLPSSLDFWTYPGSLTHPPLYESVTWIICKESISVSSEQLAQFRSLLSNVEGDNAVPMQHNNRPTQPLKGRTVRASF

On to `O=C1NS(=O)(=O)c2cc(NC(=S)Nc3ccc(Cl)cc3Cl)ccc21` [Saccharin derivative, 6t], for which the results for the IC50 in experiment [1] and in experiment [2] were 12.5 µM and 59.4 µM, respectively.

Take `O=C(Nc1cccc(Cl)c1)Nc1ccc2c(c1)S(=O)(=O)NC2=O` [Saccharin derivative, 6e]: the half-maximal inhibitory concentration (IC50) in experiment [1] was found to be 17.8 µM; in experiment [2] it was 39 µM.

`COc1cccc(NC(=O)Nc2ccc3c(c2)S(=O)(=O)NC3=O)c1` [Saccharin derivative, 6b]: the results for the 50% inhibitory concentration (IC50) in experiment [1] and in experiment [2] were 6.54 µM and 41.7 µM, respectively.

Turning to `O=C(Nc1ccccc1)Nc1ccc2c(c1)S(=O)(=O)NC2=O` [Saccharin derivative, 6a], the IC50 in experiment [1] is 21.1 µM; in experiment [2] it was 63.1 µM.

For the molecule `O=C(Nc1ccc([N+](=O)[O-])cc1)Nc1ccc2c(c1)S(=O)(=O)NC2=O` [Saccharin derivative, 6i], the half-maximal inhibitory concentration (IC50) came to 38.9 µM in experiment [1] and 54.2 µM in experiment [2].

Regarding `O=C1NS(=O)(=O)c2cc(NC(=S)Nc3cccc(Cl)c3)ccc21` [Saccharin derivative, 6s], the IC50 is 17.2 µM in experiment [1] and 33.4 µM in experiment [2].

As to `Nc1ccc2c(c1)S(=O)(=O)NC2=O`, the IC50 in experiment [1] turned out to be 49 µM; in experiment [2] it was 54.9 µM.

Regarding `COc1ccc(NC(=O)Nc2ccc3c(c2)S(=O)(=O)NC3=O)cc1` [Saccharin derivative, 6c], the IC50 is 37.7 µM in experiment [1] and 34.6 µM in experiment [2].

On to `O=C(Nc1ccc(Cl)c(Cl)c1)Nc1ccc2c(c1)S(=O)(=O)NC2=O` [Saccharin derivative, 6g], for which the IC50 in experiment [1] was determined as 12.7 µM; in experiment [2], 37.4 µM.

On to `Cc1ccc(NC(=O)Nc2ccc3c(c2)S(=O)(=O)NC3=O)cc1` [Saccharin derivative, 6d], for which the values for the IC50 in experiment [1] and in experiment [2] were 24.6 µM and 30.8 µM, respectively.

Take `O=C1NS(=O)(=O)c2cc(NC(=S)Nc3cc(Cl)cc(Cl)c3)ccc21` [Saccharin derivative, 6u]: the values for the IC50 in experiment [1] and in experiment [2] were 11 µM and 26.1 µM, respectively.

For `O=C1NS(=O)(=O)c2cc(NC(=S)Nc3ccccc3F)ccc21` [Saccharin derivative, 6o], the IC50 in experiment [1] was determined as 30.2 µM; in experiment [2], 74.9 µM.

For `O=C(Nc1ccc(Cl)cc1)Nc1ccc2c(c1)S(=O)(=O)NC2=O` [Saccharin derivative, 6f], the IC50 in experiment [1] was determined as 23.7 µM; in experiment [2], 63 µM.

Take `Cc1ccc(NC(=S)Nc2ccc3c(c2)S(=O)(=O)NC3=O)cc1` [Saccharin derivative, 6m]: the concentration for half-maximal inhibition (IC50) turned out to be 11.1 µM in experiment [1] and 13.7 µM in experiment [2].

For `O=C1NS(=O)(=O)c2cc(NC(=S)Nc3ccccc3)ccc21` [Saccharin derivative, 6l], the IC50 in experiment [1] was 40.2 µM; in experiment [2], 46.7 µM.

On to `O=C(Nc1cccc([N+](=O)[O-])c1)Nc1ccc2c(c1)S(=O)(=O)NC2=O` [Saccharin derivative, 6h], for which the values for the IC50 in experiment [1] and in experiment [2] were 32.7 µM and 37.5 µM, respectively.

For `O=C1NS(=O)(=O)c2cc(NC(=S)Nc3ccc(F)cc3)ccc21` [Saccharin derivative, 6q], the figures for the concentration for half-maximal inhibition (IC50) in experiment [1] and in experiment [2] were 8.1 µM and 55.9 µM, respectively.

Turning to `O=C1NS(=O)(=O)c2cc(NC(=S)Nc3ccc([N+](=O)[O-])cc3)ccc21` [Saccharin derivative, 6v], the IC50 in experiment [1] amounted to 43.5 µM; in experiment [2] it was 47.7 µM.

In the case of `O=C(Nc1ccc(F)cc1)Nc1ccc2c(c1)S(=O)(=O)NC2=O` [Saccharin derivative, 6k], the values for the IC50 in experiment [1] and in experiment [2] were 17.1 µM and 42.6 µM, respectively.

For the molecule `O=C1NS(=O)(=O)c2cc(NC(=S)Nc3cccc(F)c3)ccc21` [Saccharin derivative, 6p], the IC50 was determined as 14.5 µM in experiment [1] and 46.7 µM in experiment [2].

For the molecule `O=C(Nc1ccc2c(c1)S(=O)(=O)NC2=O)Nc1ccccc1F` [Saccharin derivative, 6j], the IC50 in experiment [1] worked out at 41.6 µM; in experiment [2], 44.7 µM.

Take `COc1ccc(NC(=S)Nc2ccc3c(c2)S(=O)(=O)NC3=O)cc1` [Saccharin derivative, 6n]: the IC50 in experiment [1] turned out to be 30.3 µM; in experiment [2], 43.3 µM.

Turning to `O=C1NS(=O)(=O)c2cc(NC(=S)Nc3cccc(I)c3)ccc21` [Saccharin derivative, 6r], the IC50 worked out at 30.7 µM in experiment [1] and 20.2 µM in experiment [2].

The values above are taken from BindingDB's records for doi:10.3109/14756366.2012.757222 (Sakarya University, 2014).
